For this assay, the system named is M. mycetomatis genome strain MM55. Description: CLSI M38-A2 based in vitro susceptibility screening (XTT or resazurin), growth at fixed concentration. The assay is classed as cell-based, Madurella mycetomatis. Conditions: Madurella mycetomatis. (In general: Tetrazolium assays rely on reduction of a dye to a coloured formazan, in cell work by metabolically active cells.)

[1] abbreviates: 25 uM, mean of replicates, MM55, read-out: Percentage survival at 25um, 25 uM mean.
Where [2] appears, read: 25 uM, replicate A, MM55, read-out: Percentage survival at 25um, 25 um A.
Where [3] appears, read: 25 uM, replicate B, MM55, read-out: Percentage survival at 25um, 25 uM B.
Setting [4] is: 25 uM, replicate C, MM55, read-out: Percentage survival at 25um, 25 uM C.
Setting [5] is: mean of replicates, MM55, read-out: Percentage survival at 100um, 100 uM mean.
[6] abbreviates: replicate 1, MM55, read-out: Percentage survival at 100um, 100 uM A.
Where [7] appears, read: replicate 2, MM55, read-out: Percentage survival at 100um, 100 uM A.
Setting [8] is: replicate 3, MM55, read-out: Percentage survival at 100um, 100 uM A.
Where [9] appears, read: 25 uM, mean of three replicates, read-out: Percentage survival at 25um, 25 uM mean.
The mark [10] stands for this setting: 25 uM, replicate A, read-out: Percentage survival at 25um, 25 um A.
Setting [11] is: 25 uM, replicate B, read-out: Percentage survival at 25um, 25 uM B.
The mark [12] stands for this setting: 25 uM, replicate C, read-out: Percentage survival at 25um, 25 uM C.
Setting [13] is: first replicate column, read-out: Percentage survival at 100um, 100 uM A.
Setting [14] is: mean of three replicates, read-out: Percentage survival at 100um, 100 uM mean.
Setting [15] is: second replicate column, read-out: Percentage survival at 100um, 100 uM A.
Setting [16] is: third replicate column, read-out: Percentage survival at 100um, 100 uM A.
The mark [17] stands for this setting: 25 uM, mean of replicates, read-out: Percentage survival at 25um, 25 uM mean.
[18] abbreviates: mean of replicates, read-out: Percentage survival at 100um, 100 uM mean.
Where [19] appears, read: replicate 1, read-out: Percentage survival at 100um, 100 uM A.
The mark [20] stands for this setting: replicate 2, read-out: Percentage survival at 100um, 100 uM A.
The mark [21] stands for this setting: replicate 3, read-out: Percentage survival at 100um, 100 uM A.
[22] abbreviates: replicate 1, read-out: Percentage survival at 100um, 100 uM A (first replicate column).
Where [23] appears, read: replicate 2, read-out: Percentage survival at 100um, 100 uM A (second replicate column).
[24] abbreviates: replicate 3, read-out: Percentage survival at 100um, 100 uM A (third replicate column).
The mark [25] stands for this setting: 25 uM, mean, read-out: Percentage survival at 25um, 25 uM mean.
Setting [26] is: mean, read-out: Percentage survival at 100um, 100 uM mean.
[27] abbreviates: replicate (first column), read-out: Percentage survival at 100um, 100 uM A.
The mark [28] stands for this setting: replicate (second column), read-out: Percentage survival at 100um, 100 uM A.
The mark [29] stands for this setting: replicate (third column), read-out: Percentage survival at 100um, 100 uM A.

Like-named read-outs stand apart in the source and are kept apart here.

For `O=C(NO)C1(CS(=O)(=O)c2ccc(Oc3ccc(Cl)cc3)cc2)CCOCC1` [MMV690706], the activity at 25 µM is, setting by setting: under setting [1], 82%; under setting [2], 85.7%; under setting [3], 90.9%; under setting [4], 69.4%. Besides, the activity at 100 µM reads like this: under setting [5], 68.5%; under setting [6], 72.4%; under setting [7], 62.8%; under setting [8], 70.2%.
Regarding `CC(=O)N1c2ccccc2NC2=C(C(=O)CC(C)(C)C2)C1c1ccc(OCc2ccccc2)cc1` (stereo not drawn) [MMV1580503], the activity at 25 µM is, setting by setting: under setting [9], 100%; under setting [10], 99.4%; under setting [11], 107%; under setting [12], 94.6%. Further, the activity at 100 µM by setting is: under setting [13], 99.3%; under setting [14], 97.8%; under setting [15], 113%; under setting [16], 80.9%.
Consider `COc1ccc(C(C)(C)C)cc1NC(=O)C(=O)c1ccc(OCCN2CCOCC2)c2ccccc12` [MMV1782209], for which the activity at 25 µM under setting [1] is 96.3%, the activity at 25 µM under setting [2] was determined as 102%, the activity at 25 µM under setting [3] amounted to 99.5% and the activity at 25 µM under setting [4] was found to be 87.2%. Further, the activity at 100 µM reads like this: under setting [5], 91.3%; under setting [6], 102%; under setting [7], 86%; under setting [8], 85.7%.
In the case of `CN(C)CCCNC(=O)c1ccc(-c2cc(O)c3ncccc3c2)cc1` [MMV1580488], the activity at 25 µM under setting [1] came out at 54.3%, the activity at 25 µM under setting [2] was 72%, the activity at 25 µM under setting [3] stood at 76.2% and the activity at 25 µM under setting [4] was determined as 14.8%. Also, the activity at 100 µM is 9.5% under setting [5], 10.5% under setting [6], 5.72% under setting [7] and 12.3% under setting [8].
Take `Clc1cccc(-c2nnc(-c3ccccc3)o2)c1` [MMV141011]: the activity at 25 µM under setting [17] was found to be 67.1%, the activity at 25 µM under setting [10] amounted to 78.3%, the activity at 25 µM under setting [11] was found to be 72.5% and the activity at 25 µM under setting [12] stood at 50.5%. The activity at 100 µM is 67.1% under setting [18], 58.8% under setting [19], 65.1% under setting [20] and 77.6% under setting [21].
Consider `COc1ccc2sc3c(c2c1)NC(C)CNC3=O` (stereo not drawn) [MMV1782115], for which the activity at 25 µM under setting [9] amounted to 53.1%, the activity at 25 µM under setting [10] came to 57.6%, the activity at 25 µM under setting [11] worked out at 74.6% and the activity at 25 µM under setting [12] turned out to be 27.1%. In addition, the activity at 100 µM is -0.834% under setting [14], -3.17% under setting [22] and 1.07% under setting [24]. In addition, the Percent fungal survival at 100 µM under setting [23] is -0.401%.
With `COc1ccc(NC(=O)c2cc3ccccn3n2)cc1` [MMV374187], the activity at 25 µM is 100% under setting [9], 94.6% under setting [10], 115% under setting [11] and 90.7% under setting [12]. Also, the activity at 100 µM runs as follows: under setting [14], 65.8%; under setting [22], 52%; under setting [24], 84.9%. The Percent fungal survival at 100 µM under setting [23] came out at 60.6%.
Regarding `O=C(O)c1sccc1S(=O)(=O)n1ccc2cc(Br)ccc21` [MMV1580855], the activity at 25 µM runs as follows: under setting [9], 98.9%; under setting [10], 101%; under setting [11], 108%; under setting [12], 88.3%. Also, the activity at 100 µM is 97.9% under setting [14], 128% under setting [22] and 79.1% under setting [24]. Also, the Percent fungal survival at 100 µM under setting [23] was determined as 86.2%.
In the case of `C[C@H]1CC[C@]2(NC1)O[C@H]1C[C@H]3[C@@H]4CC[C@H]5C[C@@H](O)CC[C@]5(C)[C@H]4CC[C@]3(C)[C@H]1[C@@H]2C` [MMV003069], the activity at 25 µM was found to be 98.3% under setting [10]; 98.8% (read-out: Percentage survival at 25um, 25 uM B); 91.1% (read-out: Percentage survival at 25um, 25 uM C); 96.1% (read-out: Percentage survival at 25um, 25 uM mean). Moreover, the activity at 100 µM under setting [18] is 85.8%, the activity at 100 µM under setting [22] is 80.2%, the activity at 100 µM under setting [23] turned out to be 92.8% and the activity at 100 µM under setting [24] was determined as 84.2%.
With `O=C(O)c1ccc(-n2nc(-c3ccccc3O)nc2-c2ccccc2O)cc1` [MMV640014], the activity at 25 µM is, setting by setting: under setting [25], 87%; under setting [10], 94.6%; under setting [11], 88.3%; under setting [12], 78%. For the same compound, the activity at 100 µM runs as follows: under setting [26], 78.4%; under setting [27], 85.5%; under setting [28], 73.2%; under setting [29], 76.5%.
As for `NC(=O)c1ccc(I)c([N+](=O)[O-])c1` [MMV1581035], the activity at 25 µM is, setting by setting: under setting [9], 97.6%; under setting [10], 97.2%; under setting [11], 103%; under setting [12], 92.5%. Moreover, the activity at 100 µM is, setting by setting: under setting [13], 89.6%; under setting [14], 90.1%; under setting [15], 93.1%; under setting [16], 87.5%.
For the compound `CC1CCc2c(N3CCC(O)CC3)c(F)cc3c(=O)c(C(=O)O)cn1c23` (stereo not drawn) [MMV637659], the activity at 25 µM by setting is: under setting [17], 88.6%; under setting [10], 77.6%; under setting [11], 95.3%; under setting [12], 93%. In addition, the activity at 100 µM is, setting by setting: under setting [18], 77.8%; under setting [19], 65.4%; under setting [20], 81.1%; under setting [21], 86.9%.
As to `CC(N)C12CC3CC(CC(C3)C1)C2` (stereo not drawn) [MMV637855], the activity at 25 µM was 86% under setting [1], 78.5% under setting [2], 82.6% under setting [3] and 96.9% under setting [4]. For the same compound, the activity at 100 µM runs as follows: under setting [5], 60.7%; under setting [6], 60.1%; under setting [7], 57.9%; under setting [8], 64%.
With `O=C(NNC(=S)Nc1ccc(Cl)cc1)c1ccncc1` [MMV1782227], the activity at 25 µM under setting [25] was found to be 85.9%, the activity at 25 µM under setting [10] turned out to be 105%, the activity at 25 µM under setting [11] was determined as 86.1% and the activity at 25 µM under setting [12] is 67%. In addition, the activity at 100 µM runs as follows: under setting [26], 121%; under setting [27], 128%; under setting [28], 90.7%; under setting [29], 144%.
Turning to `CN1C(=O)C(c2ccccc2)C(=O)N(c2ccccc2)c2cc(C(F)(F)F)ccc21` (stereo not drawn) [MMV1782208], the activity at 25 µM runs as follows: under setting [1], 99.7%; under setting [2], 120%; under setting [3], 99.1%; under setting [4], 80.3%. The activity at 100 µM is, setting by setting: under setting [5], 90.1%; under setting [6], 94.2%; under setting [7], 97.9%; under setting [8], 78.1%.

For the origin of these results see publication PMC8815882, “Screening the pandemic response box identified benzimidazole carbamates, Olorofim and ravuconazole as promising drug candidates for the treatment of eumycetoma” (PLoS Neglected Tropical Diseases, 2022).
